# Assay results from patent publication US20250325547A1, “ANTI-SARS-COV-2 DRUG” (KAGOSHIMA UNIVERSITY, priority 2021, published 2025).
# Like-named read-outs stand apart in the source and are kept apart here.
# Legend:
# Assay type in all cases: cell-based
# [1] = system: SARS-CoV-2 Alpha strain (QK002)
# [2] = system: SARS-CoV-2 Beta strain (TY8-612)
# [3] = system: SARS-CoV-2 Gamma strain (TY7-501)
# [4] = Alpha strain (QK002), CPE assay in Vero/TMPRSS2
# [5] = Beta strain (TY8-612), CPE assay in Vero/TMPRSS2
# [6] = Gamma strain (TY7-501), CPE assay in Vero/TMPRSS2
SMILES,"EC50 [1, 4]","EC50 [2, 5]","EC50 [3, 6]",EC50 [1],EC50 [2],EC50 [3]
CCN(Cc1cc(Nc2ncnc3ccccc23)cc(Cl)c1O)C(C)C [Compound 11],3.8 µM,9.3 µM,5.4 µM,–,–,–
CC(C)N(Cc1cc(Nc2ncnc3ccccc23)cc(Cl)c1O)C(C)C [Compound 15],2.7 µM,6.8 µM,3.5 µM,–,–,–
CCN(Cc1cc(Nc2ncnc3ccccc23)cc(Cl)c1O)C1CCCCC1 [Compound 19],–,–,–,5.8 µM,8.6 µM,4.2 µM
